These are literature values, as cited in patent US20240158750A1, “STROMA-FREE NK CELL DIFFERENTIATION FROM HUMAN PLURIPOTENT STEM CELLS” (The Children's Medical Center Corporation, priority 2021, published 2024).

One data set has as its target T1, PKMT G9a (Homo sapiens, UniProt Q96KQ7).
T1 sequence (Q96KQ7 1-1210): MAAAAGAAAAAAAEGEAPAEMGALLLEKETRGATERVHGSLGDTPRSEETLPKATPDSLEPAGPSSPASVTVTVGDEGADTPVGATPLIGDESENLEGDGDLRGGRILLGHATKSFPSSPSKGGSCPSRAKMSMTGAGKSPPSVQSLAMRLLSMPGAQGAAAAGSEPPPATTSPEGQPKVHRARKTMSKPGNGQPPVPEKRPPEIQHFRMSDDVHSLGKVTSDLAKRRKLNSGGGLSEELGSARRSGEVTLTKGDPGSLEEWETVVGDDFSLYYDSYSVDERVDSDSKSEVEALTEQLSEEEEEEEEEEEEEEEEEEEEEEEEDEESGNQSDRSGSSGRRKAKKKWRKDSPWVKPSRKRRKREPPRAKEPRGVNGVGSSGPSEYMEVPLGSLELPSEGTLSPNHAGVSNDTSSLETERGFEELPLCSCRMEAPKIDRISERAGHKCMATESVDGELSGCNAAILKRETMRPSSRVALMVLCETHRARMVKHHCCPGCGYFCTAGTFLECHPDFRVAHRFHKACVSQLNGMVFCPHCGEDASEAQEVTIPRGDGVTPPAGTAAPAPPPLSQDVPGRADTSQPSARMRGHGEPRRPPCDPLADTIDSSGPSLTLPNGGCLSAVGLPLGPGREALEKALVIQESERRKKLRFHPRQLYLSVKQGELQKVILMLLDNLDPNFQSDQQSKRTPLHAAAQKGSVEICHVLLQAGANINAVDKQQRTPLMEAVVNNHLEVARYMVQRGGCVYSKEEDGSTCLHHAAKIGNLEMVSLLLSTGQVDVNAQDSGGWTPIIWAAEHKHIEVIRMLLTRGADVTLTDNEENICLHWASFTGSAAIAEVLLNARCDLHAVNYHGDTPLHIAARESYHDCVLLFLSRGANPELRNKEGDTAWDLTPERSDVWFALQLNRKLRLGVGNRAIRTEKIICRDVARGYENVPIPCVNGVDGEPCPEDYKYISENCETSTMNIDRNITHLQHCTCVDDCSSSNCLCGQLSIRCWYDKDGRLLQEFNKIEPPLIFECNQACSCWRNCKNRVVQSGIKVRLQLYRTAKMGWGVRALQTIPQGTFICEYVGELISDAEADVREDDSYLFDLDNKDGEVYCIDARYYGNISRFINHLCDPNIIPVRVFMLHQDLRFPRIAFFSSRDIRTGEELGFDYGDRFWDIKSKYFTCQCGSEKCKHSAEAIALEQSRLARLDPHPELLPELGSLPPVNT
The settings on record: based on Morrison Ki; cited from earlier work.

A further data set addresses T2, SET7/9 (Homo sapiens, UniProt Q8WTS6).
T2 sequence (Q8WTS6 1-366): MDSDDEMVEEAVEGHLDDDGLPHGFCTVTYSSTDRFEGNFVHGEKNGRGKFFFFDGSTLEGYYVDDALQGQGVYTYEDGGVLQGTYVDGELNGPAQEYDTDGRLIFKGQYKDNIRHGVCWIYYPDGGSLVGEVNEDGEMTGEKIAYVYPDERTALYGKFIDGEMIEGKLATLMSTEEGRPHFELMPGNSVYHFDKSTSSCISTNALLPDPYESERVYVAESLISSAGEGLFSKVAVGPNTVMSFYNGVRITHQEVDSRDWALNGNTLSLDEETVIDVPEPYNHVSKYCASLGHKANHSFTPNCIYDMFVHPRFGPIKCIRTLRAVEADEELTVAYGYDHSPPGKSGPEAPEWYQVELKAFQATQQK
The settings on record: SET7/9, inactive, ECSD enzymatic assay; cited from earlier work.

For another data set, the target named is SET8/PreSET7 (Homo sapiens, UniProt Q9NQR1). The settings on record: SET8/PreSET7, inactive, ECSD enzymatic assay; cited from earlier work.
Another data set concerns the target PRMT3 (Homo sapiens, UniProt O60678). The settings on record: PRMT3, inactive, ECSD enzymatic assay; cited from earlier work.
A further data set concerns the target T3, JMJD2E (Homo sapiens, UniProt B2RXH2).
T3 sequence (B2RXH2 1-506): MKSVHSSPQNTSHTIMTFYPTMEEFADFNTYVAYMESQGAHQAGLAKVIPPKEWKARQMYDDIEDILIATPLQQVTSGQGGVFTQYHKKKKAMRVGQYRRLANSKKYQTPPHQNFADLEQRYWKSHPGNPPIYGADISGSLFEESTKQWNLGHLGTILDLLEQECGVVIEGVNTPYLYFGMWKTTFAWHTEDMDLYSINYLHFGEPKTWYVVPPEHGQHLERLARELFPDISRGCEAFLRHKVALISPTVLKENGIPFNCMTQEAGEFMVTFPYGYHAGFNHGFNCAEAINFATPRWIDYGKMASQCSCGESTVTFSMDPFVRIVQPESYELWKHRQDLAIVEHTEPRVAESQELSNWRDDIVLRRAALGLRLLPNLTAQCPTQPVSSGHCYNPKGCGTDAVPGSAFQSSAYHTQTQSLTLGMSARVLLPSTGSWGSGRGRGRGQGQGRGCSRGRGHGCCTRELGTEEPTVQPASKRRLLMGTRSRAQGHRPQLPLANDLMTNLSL
The settings on record: ECSD enzymatic assay, cited from earlier work.

Another data set addresses T4, G9a/GLP (Homo sapiens, UniProt Q96KQ7).
T4 sequence (Q96KQ7 1-1210): T1 sequence (Q96KQ7 1-1210)
The settings on record: SAM-competitive; cited from earlier work.

For data set [1], the target named is T5, class III isoenzyme SIRT1 (Homo sapiens, UniProt Q96EB6).
T5 sequence (Q96EB6 1-747): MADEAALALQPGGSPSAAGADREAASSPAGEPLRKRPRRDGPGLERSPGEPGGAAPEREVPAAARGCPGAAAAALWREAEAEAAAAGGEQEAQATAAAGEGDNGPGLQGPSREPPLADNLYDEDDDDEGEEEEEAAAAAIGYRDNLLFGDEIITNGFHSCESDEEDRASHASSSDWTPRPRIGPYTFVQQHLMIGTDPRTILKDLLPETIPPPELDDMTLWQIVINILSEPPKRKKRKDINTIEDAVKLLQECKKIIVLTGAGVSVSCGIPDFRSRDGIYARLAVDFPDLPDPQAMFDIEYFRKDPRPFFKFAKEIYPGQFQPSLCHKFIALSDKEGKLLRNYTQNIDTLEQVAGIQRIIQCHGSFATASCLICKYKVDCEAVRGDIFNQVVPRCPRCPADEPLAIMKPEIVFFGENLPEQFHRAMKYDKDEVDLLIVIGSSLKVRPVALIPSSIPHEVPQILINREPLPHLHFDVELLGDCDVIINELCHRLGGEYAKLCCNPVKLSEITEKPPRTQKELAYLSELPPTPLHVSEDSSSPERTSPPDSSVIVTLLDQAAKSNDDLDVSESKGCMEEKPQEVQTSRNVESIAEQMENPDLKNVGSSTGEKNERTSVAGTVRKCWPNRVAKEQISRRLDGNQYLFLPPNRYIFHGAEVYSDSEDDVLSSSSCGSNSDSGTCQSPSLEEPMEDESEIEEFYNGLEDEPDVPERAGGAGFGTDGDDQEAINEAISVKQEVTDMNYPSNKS
The settings on record: cited from earlier work.

The subject of the next data set is G9a. The settings on record: cited from earlier work.
The next data set addresses T6, DIM5 (Neurospora crassa, UniProt Q8X225).
T6 sequence (Q8X225 1-331): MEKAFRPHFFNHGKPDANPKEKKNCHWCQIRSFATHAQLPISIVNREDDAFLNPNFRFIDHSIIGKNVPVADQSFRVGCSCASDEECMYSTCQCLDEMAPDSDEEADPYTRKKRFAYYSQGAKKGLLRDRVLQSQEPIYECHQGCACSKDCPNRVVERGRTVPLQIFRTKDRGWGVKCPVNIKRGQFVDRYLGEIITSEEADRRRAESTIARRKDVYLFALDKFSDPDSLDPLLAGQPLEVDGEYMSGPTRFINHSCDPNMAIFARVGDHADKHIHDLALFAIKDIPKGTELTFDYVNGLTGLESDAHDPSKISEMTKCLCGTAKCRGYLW
The settings on record: cited from earlier work.

For a further data set, the target named is T7, Lys20-specific PRSET7 (Homo sapiens, UniProt Q9NQR1).
T7 sequence (Q9NQR1 1-393): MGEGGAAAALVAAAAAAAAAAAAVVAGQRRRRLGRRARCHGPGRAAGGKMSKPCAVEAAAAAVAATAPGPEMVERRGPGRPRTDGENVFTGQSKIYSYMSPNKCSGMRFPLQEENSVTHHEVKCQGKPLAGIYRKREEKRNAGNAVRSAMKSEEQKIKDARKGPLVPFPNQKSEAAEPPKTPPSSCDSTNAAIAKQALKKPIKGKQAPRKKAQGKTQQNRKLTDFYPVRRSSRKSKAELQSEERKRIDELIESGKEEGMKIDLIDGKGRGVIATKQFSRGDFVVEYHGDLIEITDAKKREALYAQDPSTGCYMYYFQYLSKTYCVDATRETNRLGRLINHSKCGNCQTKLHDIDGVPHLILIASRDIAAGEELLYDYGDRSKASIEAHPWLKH
The settings on record: cited from earlier work.

For a further data set, the system named is Lys27-specific EZH2. The settings on record: cited from earlier work.
For the next data set, the target named is T8, Lys4-specific SET7/9 (Homo sapiens, UniProt Q8WTS6).
T8 sequence (Q8WTS6 1-366): T2 sequence (Q8WTS6 1-366)
The settings on record: cited from earlier work.

Bounds are passed on as bounds.

PRMT3, sequence (O60678 whole entry, species assumed): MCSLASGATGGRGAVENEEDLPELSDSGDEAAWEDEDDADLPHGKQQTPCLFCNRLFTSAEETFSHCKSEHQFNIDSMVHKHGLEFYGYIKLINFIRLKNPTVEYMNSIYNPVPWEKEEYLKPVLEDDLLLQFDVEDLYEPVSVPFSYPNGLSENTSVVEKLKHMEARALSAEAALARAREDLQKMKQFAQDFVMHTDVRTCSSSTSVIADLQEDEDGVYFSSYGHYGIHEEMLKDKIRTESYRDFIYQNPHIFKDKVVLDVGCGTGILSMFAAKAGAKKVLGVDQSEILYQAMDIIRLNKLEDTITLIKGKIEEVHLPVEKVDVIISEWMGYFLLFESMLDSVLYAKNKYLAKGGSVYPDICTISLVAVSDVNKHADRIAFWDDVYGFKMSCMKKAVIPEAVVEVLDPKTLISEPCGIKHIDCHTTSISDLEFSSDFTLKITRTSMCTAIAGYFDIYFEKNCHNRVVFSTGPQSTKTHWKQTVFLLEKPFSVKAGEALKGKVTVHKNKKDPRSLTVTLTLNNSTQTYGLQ

On to `COc1cc2c(NC3CCN(C)CC3)nc(N3CCCN(C)CC3)nc2cc1OCCOCCN(C)C` [UNC0321], for which the “fold more potent than BIX01294” value at PKMT G9a is listed as ~250 fold. Further, the concentration for half-maximal inhibition (IC50) (as a rule, the midpoint of a concentration-inhibition curve) at SET7/9 was > 40 µM; on SET8/PreSET7, > 40 µM; on PRMT3, > 40 µM; at JMJD2E (JMJD2E, inactive), > 40 µM. On JMJD2E (G9a over JMJD2E), the selectivity entry is “well as JMJD2E (>1000-fold”.
For `COc1ccc(C(=O)Oc2ccc(CCn3c(NC(=O)c4ccc(C(F)(F)F)cc4)nc4cc(C(=O)O)ccc43)cc2)cc1` [BIX-01338], the effective conc. entry at G9a/GLP was “G9a/GLP effective conc. = 15 μM”.
As for `CCCCc1nc2cc(/C=C/C(=O)NO)ccc2n1CCN(CC)CC` [SB939 (Pracinostat)], in data set [1], the “activity against the class III isoenzyme SIRT1” value is recorded as “no activity”.
As to Chaetocin, the IC50 in the data set on G9a is 2.5 µM; at DIM5, 3 µM; at Lys20-specific PRSET7, > 90 µM; with Lys27-specific EZH2 it was > 90 µM; at Lys4-specific SET7/9, > 90 µM.
